The values that follow come from US20020183277A1, “Combination of vitamin D analogue and pyrimidine nucleoside analogue” (priority 2001, published 2002).

Assay [1] concerns estrogen receptor-negative MDA-MB-231 tumours. Particulars: in combination with doxifluridine, MDA-MB-231 tumours in athymic mice; cited from earlier work.
For assay [2], the system named is cytidine deaminase (CDA) activity in HT-29 cells. The assay can be described thus: cytidine deaminase activity in extracts of treated HT-29 cells. Type of assay: cell-based, human. To be noted: 10^-7 M; for increase in cytidine deaminase activity: incubation at day 1 for 24 hours, versus isopropanol control. Here is the method:
(§1) HT-29 cells (a human colon cancer cell line) were grown in medium to which was added 0.0025% isopropanol as control, 10^−7 M 1α, 25-dihydroxyvitamin D3 or 10^−7 M seocalcitol, respectively. The medium was changed on days 1, 4, 6, 8, 11 and 13, each time with addition of isopropanol, 1α, 25-dihydroxyvitamin D3 or seocalcitol, as appropriate.
(§2) On each of the indicated days, cells from each culture were harvested, pelleted and frozen. For the cytidine deaminase and thymidine phosphorylase assays, the frozen cell pellet was thawed and resuspended in 150 μl of 0.1 M Tris-Hcl, pH 8.1. The cell suspension was sonicated for 2-5 seconds and centrifuged at 20000×g for 20 minutes at 4° C. 100 μl of cell extract was transferred to Eppendorf tubes containing 0.5 μl 1M DTT.
(§3) The cytidine deaminase activity in the cell extracts was determined by measuring the conversion of radiolabelled cytidine to […] and uracil. The assay is a combination of the methods described in J. Mejer and P. Nygaard, “Cytosine Arabinoside Phosphorylation and Deamination in Acute Myeloblastic Leukemia Cells”, Leukemia Research 2, 1978 pp. 127-131, and B. R. De Saint Vincent et al., “The Modulation of Thymidine Triphosphate Pool of Chinese Hamster Cells by dCMP Deaminase and UDP Reductase”, J. Biol. Chem. 255, 1980, pp. 162-167, which are hereby incorporated by reference.
The assay mixture has a total volume of 50 μl and the following composition:
2 μl ^3H-cytidine (18.2 Ci/mmol, 1 mCi/ml)
The substrate and products were separated on PEI-cellulose plates placed in about 1.5 cm of a mixture of isopropanol:water:ethyl acetate 41:22:117.

Assay [3] concerns thymidine phosphorylase (TP) activity in HT-29 cells. Nature of the assay: thymidine phosphorylase activity in extracts of treated HT-29 cells. It counts as cell-based, human. To be noted: 10^-7 M; for thymidine phosphorylase activity: at day 11 (control 0.395±0.062); for thymidine phosphorylase activity compared to isopropanol-treated cells: first 5 days. Here is the method: as §1, §2
(§4) The thymidine phosphorylase activity was determined by measuring the conversion of radiolabelled thymidine to thymine. The assay method used was a slight modification of the method described in T. Sumizawa et al., “Thymidine Phosphorylase Activity Associated with Platelet-Derived Endothelial Cell Growth Factor”, J. Biochem. 114, 1993, pp. 9-14, which is hereby incorporated by reference.
10 μl 50 mM sodium phosphate, pH 7.0
10 μl mM Tris-HCl, pH 7.6
2 μl ^3H-thymidine (5 Ci/mmol, 1 mCi/ml)
The substrate and product were separated on PEI-cellulose plates placed in about 1.5 cm of water.

Assay [4] deals with FHC cells. The assay can be described thus: growth of FHC cells. Type of assay: cell-based. Particulars: normal human colon epithelial cells, 10^-7 M, 14 days. Here is the method:
(§5) The effect of administration of 1α, 25-dihydroxyvitamin D3 or seocalcitol (EB 1089) on growth of FHC cells was investigated. FHC cells are normal human colon epithelial cells (ATCC CRL-1831) considered to be a good model of normal human colon epithelium. The cells were grown in a culture medium supplemented with 10^−7 M 1α,25-dihydroxyvitamin D3 or seocalcitol for 14 days.

For assay [5], the system named is cytidine deaminase activity in FHC cells. Nature of the assay: cytidine deaminase activity in FHC cells. It counts as cell-based, human. Particulars: continuous exposure, period of 11 days, control 0.07±0.03 nmol/min/mg. Here is the method: as §3, §5
Similarly, cytidine deaminase and thymidine phosphorylase activity in FHC cells following continuous exposure to 1α,25-dihydroxyvitamin D3 or seocalcitol was determined as described in example 1. […]

Assay [6] deals with thymidine phosphorylase activity in FHC cells. Nature of the assay: thymidine phosphorylase activity in FHC cells. It counts as cell-based, human. To be noted: continuous exposure, period of 11 days, control 0.25±0.04 nmol/min/mg. Here is the method:
as §4, §5
Similarly, cytidine deaminase and thymidine phosphorylase activity in FHC cells following continuous exposure to 1α,25-dihydroxyvitamin D3 or seocalcitol was determined as described in example 1. The cytidine deaminase and thymidine phosphorylase activity in control cells remained constant at 0.07±0.03 and 0.25±0.04 nmol/min/mg, respectively, over a period of 11 days and was unaffected by the presence of 1α,25-dihydroxyvitamin D3 or seocalcitol.

For assay [7], the system named is cell growth and enzymatic activity. The assay can be described thus: 2 hours versus continuous exposure (previous experiment). It counts as cell-based. Particulars: 10^-7 M.
The test system of assay [8] is solid tumours. To be noted: clinical efficacy, limited by dose-limiting toxicity; cited from earlier work.
Assay [9] relates to cytidine deaminase in HL60 cells. Particulars: human promyeolytic cell line HL60; cited from earlier work.
For assay [10], the system named is cytidine deaminase gene. To be noted: HL60, WiDr, Colo 201, Colo 205, CXF 280, DLD-1, MKN 45, MKN 1, MKN 28 and A549 cells; cited from earlier work.
The mark [11] stands for this setting: after 8 days of incubation, p<0.0001.

In the case of `C=C1/C(=C\C=C2/CCC[C@]3(C)[C@@H]([C@H](C)OCCC(C)(C)O)CC[C@@H]23)C[C@@H](O)C[C@@H]1O` [22-oxacalcitriol], the “effect of combination treatment versus 22-oxacalcitriol alone” value in assay [1] is “did not exceed that of treatment with 22-oxacalcitriol alone”.
`C=C1/C(=C\C=C2/CCC[C@]3(C)[C@@H]([C@H](C)/C=C/C=C/C(O)(CC)CC)CC[C@@H]23)C[C@@H](O)C[C@@H]1O` [seocalcitol]: the “increase in cytidine deaminase activity relative to that observed for 1α,25-dihydroxyvitamin D3” value in assay [2] (setting [11]) was “twice”. Further, the “increase in cytidine deaminase activity” value in assay [2] is 4.9 fold. Further, in assay [3], the thymidine phosphorylase activity came out at 0.672 nmol/min/mg and the “thymidine phosphorylase activity compared to isopropanol-treated cells” value is “the same as in isopropanol-treated cells”. Moreover, in [4], the “growth of FHC cells compared to untreated control cells” value is listed as “not significantly affected”. Besides, the “cytidine deaminase activity in FHC cells” value in assay [5] is “unaffected”. Besides, in assay [6], the “thymidine phosphorylase activity in FHC cells” value is on record as “unaffected”. In addition, the “effect on cell growth and enzymatic activity of 2 hours of exposure versus continuous exposure” value in [7] is listed as “equivalent effect”.
For `O=c1[nH]cc(F)c(=O)[nH]1` [5-FU, 5-fluorouracil], the overall response rate in assay [8] is listed as 10-30%.
`C=C1/C(=C\C=C2/CCC[C@]3(C)[C@@H]([C@H](C)CCCC(C)(C)O)CC[C@@H]23)C[C@@H](O)C[C@@H]1O` [1α,25-dihydroxyvitamin D3]: the “maximum increase in cytidine deaminase activity” value in [2] (setting [11]) came out at 15.5 fold. For the same molecule, in [2], the “increase in cytidine deaminase activity” value is reported as 4.5 fold. In assay [3], the thymidine phosphorylase activity stood at 0.323 nmol/min/mg and the “thymidine phosphorylase activity compared to isopropanol-treated cells” value was “the same as in isopropanol-treated cells”. In addition, the “growth of FHC cells compared to untreated control cells” value in assay [4] is recorded as “not significantly affected”. Also, the “cytidine deaminase activity in FHC cells” value in [5] was “unaffected”. Besides, in [6], the “thymidine phosphorylase activity in FHC cells” value is “unaffected”. The “cytidine deaminase in HL60 cells” value in assay [9] was “causes an increase”. For the same molecule, in assay [10], the “expression of the cytidine deaminase gene” value was “upregulates”.
